According to US5741671A, “Isolation cloning and expression of transmembrane water channel aquaporin 1(AQP1)” (The Johns Hopkins University, priority 1995, dated 1998):

Experiment: Stopped-flow osmotic water permeability of control liposomes
Type: biochemical
Conditions: mercurial reagent 1 mM
Procedure: Purified AQP1 was stored overnight at 0° C. or frozen for several days at -80° C. prior to reconstitution. Reconstitution into proteoliposomes was carried out in a final volume of 1 ml containing 60-90 μg of purified AQP1 protein in chromatography buffer, 9 mg of bath-sonicated E. coli phospholipid, 1.25% (w/v) octyl glucoside, and 50 mM Tris-HCl (pH 7.5). The mixture was briefly blended on a vortex mixer and incubated for 20 minutes on ice. […] Protein and phospholipid were measured as described by Ambudkar & Maloney (J. Biol. Chem., 1986, 261:10079-10086).
Permeability measurements. Membrane permeability measurements (Pf) were measured by exposing AQP1 proteoliposomes or control liposomes to an osmotic gradient by rapid mixing with an equal volume of another solution containing buffer A plus sufficient sucrose to increase osmolality in the mixed solutions to a value 120% of that in the original solution. This was performed with a stopped-flow fluorometer (SF.17MV, Applied Photophysics, Leatherhead, U.K.) with a measured dead time of 0.7 ms. […] Extravesicular carboxyfluorescein fluorescence was completely quenched using anti-fluorescein antibody (Harris et al., 1990, Am. J. Physiol. 259:F366-F371). […]

[Cl][Hg][Cl] [HgCl2]
effect on the Pf of control liposomes: Neither pCMBS nor HgCl2 had any effect
